“Also recorded” adds a separate entry of the source. Bridges are numbered along the chain shown (N, C = ends). Where no end group is shown, it is not given here. [ ]: non-standard residue; d: D form. 1Nal = N[C@@H](Cc1cccc2ccccc12)C(=O)O
Test system: TF-1 cells
Assay: TF-1 proliferation assay (MTT/MTS, number of viable cells)
Assay type: cell-based, human
Conditions: for efficacy and potency (EPO mimetic activity) compared with reference peptides: TF-1 proliferation, normalized plots
Method: An experiment was performed in a standard TF-1 cell assay as recommended by the European Pharmacopoe for the determination of EPO-like activity in vitro (please also see below). Basically, TF-1 cells (their proliferation being dependent from the presence of EPO-like activity) are cultured in the presence various concentrations of EPO or EPO-mimetic substances. The resulting cell numbers are quantified using colorimetric MTT-assay and photometric measurements.
TF1 cells in logarithmic growth phase (2×10^5-1×10^6 cells/ml grown in RPMI with 20% fetal calf serum (FCS) and 0.5 ng/ml IL-3) were counted, and the number of cells needed to perform an assay were centrifuged (5 min. 1500 rpm) and resuspended in RPMI with 5% FCS without IL-3 at 300 000 cells/ml. Cells were precultured in this (starvation) medium without IL-3 for 48 hours. Before starting the assay the cells were counted again.
Shortly before starting the assay stock solutions of peptides and EPO were prepared. Peptides were weighed and dissolved in RPMI with 5% FCS up to a concentration of 1 mM, 467 μM or 200 μM. EPO stock solutions were 10 nM or 20 nM. 292 μl of these stock solutions were pipetted into one well of a 96 well culture plate—one plate was taken for each substance to be tested. Two hundred μl of RPMI with 5% FCS were pipetted into seventeen other wells in each plate. Ninety-two μl of stock solution were pipetted into a well containing 200 μl medium. The contents were mixed, and 92 μl from this well was transferred to the next, and so forth. This way a dilution series (18 dilutions) of each substance was prepared such that in each consecutive well the concentration was 1:√10 of the concentration in the well before that. From each well 3×50 μl was transferred to three empty wells. This way each concentration of substance was measured in quadruplicate. Note that the uppermost and lowermost line of wells of each plate was left void.
Pre-treated (starved) cells were centrifuged (5 min. 1500 rpm) and resuspended in RPMI with 5% FCS at a concentration of 200 000 cells per ml. […]
To measure the number of live cells per well, ready-to-use […] (Promega, CellTiter 96 Aqueous One Solution Cell Proliferation Assay) was thawed in a 37° C. water bath. […] Twenty-five μl of a 10% SDS solution was added, and plates were measured in an ELISA reader (Genios, Tecan). […]
For optimal results TF-1 cells should be cultured for two days in the absence of any cytokine (starved) before starting the assay. Three days after starting the assay, cell proliferation is measured indirectly by assaying the number of viable cells.
A tetrazolium reagent, called MTS, is added which is reduced to coloured formazan. […] The amount of formazan is measured spectrophotometrically. […]

Substance | efficacy and potency (EPO mimetic activity) compared with reference peptides | agonist behaviour (maximal response compared with EPO) (peptides in their monomeric form)
AGEM40—HES: peptide (AGEM40) HESylated according to the supravalence principle (Ac-CGGTYSCHFGKLT[1Nal]VCKKQRGGGTYSCHFGKLT[1Nal]VCKKQRG-NH2; disulfide 7-16, 27-36 (inferred); not fully specified (residue 1); also: HES (hydroxyethyl starch) conjugate, maleimide-linked) | highly effective and potent | 
Ac-GGTYSCHFGKLT-Na1-VCKKQRG-Am (Ac-GGTYSCHFGKLT[1Nal]VCKKQRG-NH2; cysteine pairing not given here) [BB68] | even more effective than EMP1 and BB49; also recorded: improved effect | 
Ac-GGTYSCHFGKLTWVCKKQGG (cysteine pairing not given here) [BB49] | efficacy and potency in the same range as EMP1 | 
GGTYSCHFGPLTWVCKPQGG [EMP1, reference compound] |  | partial agonists

Source: patent US20090281278A1, “MODIFIED MOLECULES WHICH PROMOTE HEMATOPOIESIS” (priority 2006, published 2009)
